This is an account of results in PMC9840614, “A gain-of-function TPC2 variant R210C increases affinity to PI(3,5)P2 and causes lysosome acidification and hypopigmentation” (Nature Communications, 2023).

What all share (assay type): cell-based
Assay [1] addresses T1, Two Pore Channel 2 (TPC2), R210C (Homo sapiens, UniProt Q8NHX9, R210C).
T1 construct: gene TPCN2; EGFP-TPC2 R210C
The assay is described as follows: whole-endolysosome patch clamp, HEK293 vacuoles, […]. For orientation: Patch clamp records ionic current or voltage across a cell membrane.

The target of assay [2] is T2, Two Pore Channel 2 (TPC2), R210C (Homo sapiens, UniProt Q8NHX9, L11A/L12A/R210C).
T2 construct: gene TPCN2; EGFP-tagged plasma membrane-targeted TPC2 L11A/L12A
T2 sequence (Q8NHX9 whole entry L11A/L12A/R210C): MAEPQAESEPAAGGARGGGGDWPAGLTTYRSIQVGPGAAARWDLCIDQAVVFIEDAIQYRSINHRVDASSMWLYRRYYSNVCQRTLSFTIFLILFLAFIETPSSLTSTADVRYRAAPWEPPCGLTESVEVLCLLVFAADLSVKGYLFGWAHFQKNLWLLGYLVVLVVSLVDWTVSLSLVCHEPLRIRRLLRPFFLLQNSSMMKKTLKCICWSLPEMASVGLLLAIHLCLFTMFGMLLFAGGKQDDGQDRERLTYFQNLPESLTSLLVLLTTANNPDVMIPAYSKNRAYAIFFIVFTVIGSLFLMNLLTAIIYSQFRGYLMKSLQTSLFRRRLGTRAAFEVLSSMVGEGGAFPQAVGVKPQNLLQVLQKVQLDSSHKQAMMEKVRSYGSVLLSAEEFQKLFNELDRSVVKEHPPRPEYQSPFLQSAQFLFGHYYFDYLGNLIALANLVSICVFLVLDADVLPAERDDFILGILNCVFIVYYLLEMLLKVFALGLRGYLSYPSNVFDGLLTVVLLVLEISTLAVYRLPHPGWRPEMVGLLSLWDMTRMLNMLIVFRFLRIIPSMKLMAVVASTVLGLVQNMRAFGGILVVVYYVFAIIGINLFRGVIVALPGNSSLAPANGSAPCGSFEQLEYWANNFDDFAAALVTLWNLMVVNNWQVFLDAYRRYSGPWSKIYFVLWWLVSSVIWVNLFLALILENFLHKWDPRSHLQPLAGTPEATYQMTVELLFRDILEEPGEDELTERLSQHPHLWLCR
The assay is described as follows: inside-out patch clamp, HEK293, concentration response.

Assay [3] addresses T3, Two Pore Channel 2 (TPC2) (Homo sapiens, UniProt Q8NHX9, L11A/L12A).
T3 construct: gene TPCN2; EGFP-tagged plasma membrane-targeted TPC2 L11A/L12A
Described as above.

For assay [4], the target named is T4, Two Pore Channel 2 (TPC2), R210A (Homo sapiens, UniProt Q8NHX9, R210A).
T4 construct: gene TPCN2
T4 sequence (Q8NHX9 whole entry R210A): as the sequence (Q8NHX9 whole entry L11A/L12A/R210C) above, with A11L, A12L, C210A counted along it
The assay is described as follows: channel activation EC50 (n = […], data not shown in figures).

A word on the EC50: it is the concentration at which the effect is half-maximal. A high value points to a less potent agent.

T1 sequence (Q8NHX9 whole entry R210C): as the sequence (Q8NHX9 whole entry L11A/L12A/R210C) above, with A11L, A12L counted along it
T3 sequence (Q8NHX9 whole entry L11A/L12A): as the sequence (Q8NHX9 whole entry L11A/L12A/R210C) above, with C210R counted along it

In the case of `COc1ccc([C@H]2N[C@H](C(=O)O)Cc3c2[nH]c2ccccc32)cc1CN1CCN(c2ccccc2F)CC1` [Ned-19], the “whole-endolysosome patch clamp, HEK293 vacuoles, 100 nM” value in assay [1] is given as “Ned-19 inhibited the R210C currents at both potentials with fast kinetics”.
For `CCCCCCCC(=O)OC[C@H](COP(=O)(O)O[C@@H]1[C@H](O)[C@H](OP(=O)(O)O)[C@@H](O)[C@H](OP(=O)(O)O)[C@H]1O)OC(=O)CCCCCCC` [PI(3,5)P2-diC8], the EC50 came out at 2.27 ± 0.25 nM in assay [2], 209 ± 19.2 nM in assay [3] and 19.4 ± 0.74 nM in assay [4].
